ChEMBL document CHEMBL1201862, “PubChem BioAssay data set” (2004)
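Grown in 96-well plates, cells were treated for 48 hours with each compound at five concentrations. Insufficient inhibition: endpoint recorded as highest concentration tested. At the GI50, growth is halved.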 Active and inactive are the calls of the source. Cut-off read from the data, not from the text of the source: active = GI50 up to about 1.1 µM and inactive = higher.

Tests used:
Experiment in all cases: growth of human tumour cells (NCI), 48 h
[1] = tested on: LXFL 529
[2] = tested on: SF-268
[3] = tested on: DLD-1
[4] = tested on: NCI-H460
[5] = tested on: U-251
[6] = tested on: CCRF-CEM
[7] = tested on: TK-10
[8] = tested on: A498
[9] = tested on: SNB-78
[10] = tested on: XF498
[11] = tested on: Malme-3M
[12] = tested on: K562
[13] = tested on: OVCAR-5
[14] = tested on: RXF 393
[15] = tested on: NCI-H23
[16] = tested on: MOLT-4
[17] = tested on: EKVX
[18] = tested on: SK-MEL-2
[19] = tested on: A549
[20] = tested on: LOX IMVI
[21] = tested on: SW-620
[22] = tested on: M19-MEL
[23] = tested on: UACC-62
[24] = tested on: HCT-116
[25] = tested on: SNB-75
[26] = tested on: NCI-H522
[27] = tested on: UO-31
[28] = tested on: SF-295
[29] = tested on: HCT-15
[30] = tested on: HOP-18
[31] = tested on: COLO 205
[32] = tested on: SR
[33] = tested on: ACHN
[34] = tested on: DMS-273
[35] = tested on: 786-0
[36] = tested on: RPMI-8226
[37] = tested on: SNB-19
[38] = tested on: CAKI-1
[39] = tested on: HT-29
[40] = tested on: HOP-62
[41] = tested on: OVCAR-4
[42] = tested on: IGROV-1
[43] = tested on: KM-20L2
[44] = tested on: SK-MEL-5
[45] = tested on: HL-60
[46] = tested on: SK-MEL-28
[47] = tested on: KM12
[48] = tested on: OVCAR-3
[49] = tested on: M14
[50] = tested on: OVCAR-8
[51] = tested on: SN12C
[52] = tested on: SK-OV-3
[53] = tested on: UACC-257
[54] = tested on: DMS-114
[55] = tested on: SF-539
[56] = tested on: NCI-H226
[57] = tested on: HOP-92
[58] = tested on: HCC 2998

Measured: GI50

COC(=O)N/N=C(\C)C(CN1CCCCC1)C(C1=C(O)c2ccccc2OC1)c1ccccc1 (stereo unspecified)
inactive: [1] > 100 µM | [2] > 100 µM | [3] > 100 µM | [4] > 100 µM | [5] 43.1 µM | [6] > 100 µM | [7] > 100 µM | [8] > 100 µM | [9] > 100 µM | [10] > 100 µM | [11] > 100 µM | [12] > 100 µM | [13] > 100 µM | [14] 17.9 µM | [15] > 100 µM | [16] > 100 µM | [17] > 100 µM | [18] > 100 µM | [19] > 100 µM | [20] > 100 µM | [21] > 100 µM | [22] > 100 µM | [23] 86.3 µM | [24] > 100 µM | [25] 95.7 µM | [26] > 100 µM | [27] 72.4 µM | [28] > 100 µM | [30] > 100 µM | [31] > 100 µM | [32] > 100 µM | [33] > 100 µM | [34] > 100 µM | [35] > 100 µM | [36] > 100 µM | [37] > 100 µM | [38] > 100 µM | [39] > 100 µM | [40] > 100 µM | [41] > 100 µM | [42] > 100 µM | [43] > 100 µM | [44] > 100 µM | [45] > 100 µM | [46] > 100 µM | [47] > 100 µM | [48] > 100 µM | [49] > 100 µM | [50] > 100 µM | [51] > 100 µM | [52] > 100 µM | [53] > 100 µM | [54] > 100 µM | [55] > 100 µM | [56] > 100 µM
> 100 µM: [29]

COC(=O)/C=C/C1C2C3(CCC(C)C12C)OCCS3 (stereo unspecified)
inactive: [1] > 100 µM | [2] > 100 µM | [3] > 100 µM | [4] > 100 µM | [5] > 100 µM | [6] 34.3 µM | [7] > 100 µM | [8] > 100 µM | [9] > 100 µM | [10] > 100 µM | [11] > 100 µM | [12] > 100 µM | [13] > 100 µM | [14] > 100 µM | [15] > 100 µM | [16] 40.6 µM | [17] > 100 µM | [18] > 100 µM | [19] > 100 µM | [20] > 100 µM | [21] > 100 µM | [22] > 100 µM | [24] > 100 µM | [25] > 100 µM | [26] > 100 µM | [57] > 100 µM | [27] > 100 µM | [28] > 100 µM | [30] > 100 µM | [31] > 100 µM | [32] 43.1 µM | [33] > 100 µM | [34] > 100 µM | [35] > 100 µM | [37] > 100 µM | [39] > 100 µM | [40] > 100 µM | [41] > 100 µM | [42] > 100 µM | [43] > 100 µM | [44] > 100 µM | [45] > 100 µM | [46] > 100 µM | [47] > 100 µM | [48] > 100 µM | [49] > 100 µM | [58] > 100 µM | [50] > 100 µM | [51] > 100 µM | [52] > 100 µM | [53] > 100 µM | [54] > 100 µM | [55] > 100 µM | [56] > 100 µM
> 100 µM: [29]
